This is an account of results in US20250186600A1, “EXCIPIENT COMPOUNDS FOR PROTEIN FORMULATIONS” (Comera Life Sciences, Inc., priority 2020, published 2025).

For data set [1], the system named is ustekinumab. Kind of data set: Urea denaturation, Sypro orange fluorescence (Example 44). As to conditions: excipient 5 mg/mL, ustekinumab 1 mg/mL, 6M urea, 20 mM histidine pH 6.0, Sypro orange fluorescence. In kind it is physicochemical. The source says: It is known that urea denatures proteins in solution and causes them to unfold. The screening methodology in this example involved adding a specific concentration of urea to a therapeutic protein solution such as ustekinumab. […] One method to track protein unfolding involves the use of extrinsic fluorescent dyes such as Sypro orange. Sypro orange binds to hydrophobic regions in the unfolded protein structure, leading to an increase in the fluorescence signal observed. Measuring the differences in the fluorescence intensity of unfolded protein-Sypro orange complex in presence of different excipients thus allows one to identify any stabilizing effects.
All excipients used in this Example, listed in Table 45 below, were of the highest purity, and were obtained from Sigma Aldrich (St. Louis, MO) or Cayman Chemical (Ann Arbor, MI). […] This urea stock solution was then added to a final concentration of 6M to produce the test solutions (excipient plus protein plus urea). […] The pH of the mixture was rechecked and confirmed to be at pH 6.0. The test solutions were allowed to incubate at room temperature for 30 min.

A short description of data set [2]: Caffeine solubility with co-solutes during refrigerated storage (Example 61). The format is physicochemical. Further details: key: (PPT)—precipitate observed; (—)—clear solution observed. As to conditions: 50 mM co-solute, 25 mM histidine pH 6, stored 2 to 5° C. The protocol:
The resulting microplates were then sealed with microplate tape and stored in a refrigerator with the temperature maintained in the range of 2 to 5° C. Over the course of storage, the microplates were visually observed for evidence of precipitate in the well.

Data set [3] concerns omalizumab. Kind of data set: Diffusion interaction parameter kD of omalizumab by DLS (Example 62). As to conditions: omalizumab 10 to 0.6 mg/mL, 0.1M excipient, His HCl pH 6.0, 25° C.
For data set [4], the system named is omalizumab. The data set can be described thus: Viscosity of omalizumab solution by DLS of gold nanoparticles (Example 62). As to conditions: omalizumab approximately 200 mg/mL, excipient 0.1M or lower, His HCl pH 6.0, 25° C.
In data set [5] the test system is ustekinumab. Kind of data set: Stabilization at low pH, Sypro orange fluorescence (Example 45). As to conditions: excipient 5 mg/mL, ustekinumab 1 mg/mL, glycine acidification buffer pH 2.6, Sypro orange fluorescence.

Structures can show the parent of a compound that is named as a salt.

On to `NC(=NO)c1ccccc1` [benzamide oxime], for which the “% increased stability” value in the data set on ustekinumab [1] is listed as 1.4%.
`NC(=O)c1cccnc1` [Nicotinamide]: the “% increased stability” value in the data set on ustekinumab [1] came to 2.7%. Further, in data set [2] (caffeine 7.5 mg/mL), the “Day 1 (visual observation for precipitate)” value is “—”, the “Day 7 (visual observation for precipitate)” value is given as “—”, the “Day 18 (visual observation for precipitate)” value is “—” and the “Day 27 (visual observation for precipitate)” value is on record as “—”. The “Day 56 (visual observation for precipitate)” value in data set [2] (caffeine 7.5 mg/mL) is “—”. Further, in data set [2] (caffeine 10 mg/mL), the “Day 1 (visual observation for precipitate)” value is on record as “—”, the “Day 7 (visual observation for precipitate)” value is given as “—”, the “Day 18 (visual observation for precipitate)” value is on record as “—” and the “Day 27 (visual observation for precipitate)” value was “—”. In data set [2] (caffeine 10 mg/mL), the “Day 56 (visual observation for precipitate)” value was “—”. Besides, in data set [2] (caffeine 12.5 mg/mL), the “Day 1 (visual observation for precipitate)” value is “—”, the “Day 7 (visual observation for precipitate)” value is “—”, the “Day 18 (visual observation for precipitate)” value was “—” and the “Day 27 (visual observation for precipitate)” value is “—”. Further, the “Day 56 (visual observation for precipitate)” value in data set [2] (caffeine 12.5 mg/mL) is on record as “—”. In data set [2] (caffeine 15 mg/mL), the “Day 1 (visual observation for precipitate)” value was “—”, the “Day 7 (visual observation for precipitate)” value is “—”, the “Day 18 (visual observation for precipitate)” value was “—” and the “Day 27 (visual observation for precipitate)” value is listed as “—”. The “Day 56 (visual observation for precipitate)” value in data set [2] (caffeine 15 mg/mL) is reported as “PPT”. Moreover, in data set [2] (caffeine 20 mg/mL), the “Day 1 (visual observation for precipitate)” value is “—”, the “Day 7 (visual observation for precipitate)” value is given as “—”, the “Day 18 (visual observation for precipitate)” value is listed as “PPT” and the “Day 27 (visual observation for precipitate)” value is “PPT”. In data set [2] (caffeine 20 mg/mL), the “Day 56 (visual observation for precipitate)” value is listed as “PPT”.
With `O=C(O)c1ccncc1` [isonicotinic acid], the “% increased stability” value in the data set on ustekinumab [1] worked out at 4.4%.
In the data set with omalizumab [3] (Table 62A series), `CN1CCN(C)C1=O` [1,3-Dimethyl-2-imidazolidinone] returned a kD of -30.9 mL/g. In addition, the “Viscosity normalized to control” value in the data set with omalizumab [4] (Table 62A series) is given as 0.98.
Turning to `NC[C@H]1O[C@H](O[C@H]2[C@H](O)[C@@H](O)[C@H](N)C[C@@H]2N)[C@H](N)[C@@H](O)[C@@H]1O` [Neamine], in the data set on ustekinumab [1], the “% increased stability” value was 2.8%. Moreover, in the data set on ustekinumab [5], the “% change in stability” value was 5.9%.
The matching figures for `NCCSSCCN` [Cystamine]: 8.8% and 17.8%.
Take `NCCCNCCCCNCCCN` [Spermine]: the “% increased stability” value with ustekinumab [1] was 16.8%. In addition, the “% change in stability” value with ustekinumab [5] is listed as 90.0%.
`NC(=O)c1ccc[n+]([C@@H]2O[C@H](COP(=O)([O-])O)[C@@H](O)[C@H]2O)c1` [nicotinamide mononucleotide]: the kD in the data set on omalizumab [3] (Table 62B series) was -31.4 mL/g. Further, the “Viscosity normalized to control” value in the data set with omalizumab [4] (Table 62B series) was 0.83.
In the data set with omalizumab [3] (Table 62B series), `CNCC(=O)O` [sarcosine] came in with a kD of -29.9 mL/g. The “Viscosity normalized to control” value in the data set with omalizumab [4] (Table 62B series) is 1.33.
With `O=C(O)/C=C/c1ccc(O)c(O)c1` [caffeic acid], the kD in the data set with omalizumab [3] (Table 62A series) is -33.9 mL/g. Besides, in the data set with omalizumab [4] (Table 62A series), the “Viscosity normalized to control” value is 0.73.
Take `NCCCCNCCCN` [Spermidine]: in the data set with ustekinumab [1], the “% increased stability” value is given as 12.9%. In addition, the “% change in stability” value with ustekinumab [5] came to 98.1%.
With `Nc1nc(=O)c2c([nH]1)NCC(CNc1ccc(C(=O)N[C@@H](CCC(=O)[O-])C(=O)[O-])cc1)N2C=O.[Ca+2]` (stereo partly drawn) [folinic acid calcium salt], the kD with omalizumab [3] (Table 62B series) is -34.9 mL/g. Besides, the “Viscosity normalized to control” value in the data set on omalizumab [4] (Table 62B series) amounted to 0.93.
The corresponding values for `NCCCN` [1,3-diaminopropane] are -11.4 mL/g and 0.22.
With `NCCc1c[nH]c2ccccc12` [Tryptamine], the “% increased stability” value in the data set with ustekinumab [1] was 11.6%.
Turning to `O=C(O)CCCc1ccccc1` [4-phenylbutyric acid], the “% increased stability” value in the data set with ustekinumab [1] is 9.0%.
Turning to `NCCCCNCCCN` [spermidine], the kD in the data set with omalizumab [3] (Table 62B series) was -13.7 mL/g. Also, the “Viscosity normalized to control” value with omalizumab [4] (Table 62B series) turned out to be 0.31.
Turning to `Nc1ccc(C(=O)O)cc1` [p-aminobenzoic acid], the “% increased stability” value with ustekinumab [1] is listed as 2.7%.
In the case of `O=C(O)c1cccc(O)n1` [6-hydroxypyridine-2-carboxylic acid], the kD with omalizumab [3] (Table 62A series) is -31.9 mL/g. In addition, the “Viscosity normalized to control” value with omalizumab [4] (Table 62A series) was found to be 0.93.
`OCCN(CCO)c1nc(N2CCCCC2)c2nc(N(CCO)CCO)nc(N3CCCCC3)c2n1` [dipyridamole] gave a kD with omalizumab [3] (Table 62B series) of -31.2 mL/g. Also, the “Viscosity normalized to control” value in the data set on omalizumab [4] (Table 62B series) is on record as 1.10.
The corresponding values for `NCCO` [ethanolamine HCl] are -22.4 mL/g and 0.51.
`O=S(=O)(O)c1cccc2c(S(=O)(=O)O)cccc12` [1,5-naphthalenedisulfonic acid] returned a kD in the data set with omalizumab [3] (Table 62A series) of -25.1 mL/g. In addition, the “Viscosity normalized to control” value in the data set with omalizumab [4] (Table 62A series) came to 0.83.
Molecule `NCCCC[C@H](N)C(=O)O` [lysine] registered a kD in the data set on omalizumab [3] (Table 62B series) of -10.1 mL/g. In addition, in the data set with omalizumab [4] (Table 62B series), the “Viscosity normalized to control” value was 0.46.
The corresponding values for `NCc1cccc(CN)c1` [m-xylylenediamine] are -13.1 mL/g and 0.22.
As for `O[C@H]1[C@H](O)[C@@H](O)CN2CC[C@H](O)[C@H]12` [Castanospermine], in the data set on ustekinumab [1], the “% increased stability” value is recorded as 7.0%. In addition, the “% change in stability” value with ustekinumab [5] is listed as 95.9%.
Turning to `NCCCN` [1,3-Diaminopropane], in the data set with omalizumab [3] (Table 62A series), the kD was -11.3 mL/g. Besides, the “Viscosity normalized to control” value with omalizumab [4] (Table 62A series) is 0.49.
For the molecule `NC(C(=O)O)C(O)c1ccccc1` (racemic) [DL-3-phenylserine], in the data set with omalizumab [3] (Table 62B series), the kD was -30.7 mL/g. For the same molecule, the “Viscosity normalized to control” value with omalizumab [4] (Table 62B series) stood at 1.04.
Turning to `CCNC(=O)CC[C@H](N)C(=O)O` [Theanine], the “% increased stability” value in the data set with ustekinumab [1] was 6.1%. Further, in the data set with ustekinumab [5], the “% change in stability” value was 8.3%.
As to `O=C(O)c1cccnc1` [nicotinic acid], in the data set with omalizumab [3] (Table 62B series), the kD is -24.5 mL/g. Moreover, the “Viscosity normalized to control” value in the data set with omalizumab [4] (Table 62B series) came out at 0.55.
